Assay results published in patent US11498896B2 (The Broad Institute, Inc., priority 2014, dated 2022).

Legend:
human D2R/β-arrestin [1] = target: T1, human D2R/β-arrestin (Homo sapiens (Human), UniProt P14416); assay: β-arrestin agonist assay (PathHunter); format: cell-based; conditions: CHO-K1 cells expressing human D2R/β-arrestin; agonist mode
Description: The detection reagent (9.6 μL, Buffer:Emerald II:Galactor-Star in a 19:5:1 ratio, i.e., 14.06 mL:3.7 mL:0.74 mL=18.5 mL) was then added to the agonist plates.

human D2R/β-arrestin [2] = target: T1, human D2R/β-arrestin; assay: cell-based; conditions: cAMP Antagonist, CHO-K1 cells expressing human D2R/β-arrestin; antagonist mode, 2.5 μM forskolin and 2.7 nM quinpirole
human D2R/β-arrestin [3] = target: T1, human D2R/β-arrestin; assay: Gi/cAMP agonist assay (Lance Ultra cAMP, forskolin); format: cell-based; conditions: CHO-K1 cells expressing human D2R/β-arrestin; agonist mode, 2.5 μM forskolin
Description: Eu-cAMP tracer solution (10 μl, PerkinElmer, 360 μl of Tracer in 17.64 ml kit buffer) and ULight-anti-cAMP solution (10 μl, 120 μL antibody in 17.88 ml kit buffer) was then added to each well.

human D2R/β-arrestin [4] = target: T1, human D2R/β-arrestin; assay: cell-based; conditions: β-arrestin Antagonist, CHO-K1 cells expressing human D2R/β-arrestin; antagonist mode, quinpirole 130 nM

T1 sequence (P14416 whole entry): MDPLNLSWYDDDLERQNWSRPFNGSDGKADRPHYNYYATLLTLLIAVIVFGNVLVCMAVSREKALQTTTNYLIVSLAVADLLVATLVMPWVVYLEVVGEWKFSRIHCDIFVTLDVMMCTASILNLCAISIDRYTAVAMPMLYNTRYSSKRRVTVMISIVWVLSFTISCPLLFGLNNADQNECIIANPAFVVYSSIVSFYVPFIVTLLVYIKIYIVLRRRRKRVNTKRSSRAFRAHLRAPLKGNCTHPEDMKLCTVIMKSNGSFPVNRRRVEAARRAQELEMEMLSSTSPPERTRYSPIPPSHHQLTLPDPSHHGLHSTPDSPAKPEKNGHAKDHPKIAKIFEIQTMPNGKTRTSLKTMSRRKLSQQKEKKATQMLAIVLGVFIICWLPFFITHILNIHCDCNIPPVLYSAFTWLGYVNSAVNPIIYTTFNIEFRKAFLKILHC

## CC1(Oc2ccccc2)CCN(CCOc2ccccc2S(C)(=O)=O)CC1 [Compound 141, 4-methyl-1-(2-(2-(methylsulfonyl)phenoxy)ethyl)-4-phenoxypiperidine]
Human D2R/β-arrestin [1]
  EC50: > 30 µM
Human D2R/β-arrestin [2]
  IC50: 0.1 to 1 µM
Human D2R/β-arrestin [3]
  EC50: 1 to 10 µM
Human D2R/β-arrestin [4]
  IC50: 0.1 to 1 µM

## CC1(Oc2ccc(Cl)cc2)CCN(CC2COc3ccccc3O2)CC1 (stereo not drawn) [Compound 142, 4-(4-chlorophenoxy)-1-((2,3-dihydrobenzo[b][1,4]dioxin-2-yl)methyl)-4-methylpiperidine]
Human D2R/β-arrestin [1]
  EC50: 0.1 to 1 µM
Human D2R/β-arrestin [2]
  IC50: > 30 µM
Human D2R/β-arrestin [3]
  EC50: < 0.1 µM
Human D2R/β-arrestin [4]
  IC50: > 30 µM

## CC1(Oc2ccc(Cl)cc2)CCN(CCOC2CCCCC2)CC1 [Compound 143, 4-(4-chlorophenoxy)-1-(2-(cyclohexyloxy)ethyl)-4-methylpiperidine]
Human D2R/β-arrestin [1]
  EC50: > 30 µM
Human D2R/β-arrestin [2]
  IC50: > 30 µM
Human D2R/β-arrestin [3]
  EC50: 10 to 30 µM
Human D2R/β-arrestin [4]
  IC50: 10 to 30 µM

## Clc1ccc2c(c1)C[C@@H]1CN(CCOc3ccccc3)C[C@H]1O2 [Compound 145, (3aS,9aR)-7-chloro-2-(2-phenoxyethyl)-1,2,3,3a,9,9a-hexahydrochromeno[2,3-c]pyrrole]
Human D2R/β-arrestin [1]
  EC50: > 30 µM
Human D2R/β-arrestin [2]
  IC50: 0.1 to 1 µM
Human D2R/β-arrestin [3]
  EC50: > 30 µM
Human D2R/β-arrestin [4]
  IC50: 10 to 30 µM

## CC1(Oc2ccc(Cl)cc2)CCN(CCOc2ccccc2OC(F)(F)F)CC1 [Compound 146, 4-(4-chlorophenoxy)-4-methyl-1-(2-(2-(trifluoromethoxy)phenoxy)ethyl) piperidine]
Human D2R/β-arrestin [1]
  EC50: 0.1 to 1 µM
Human D2R/β-arrestin [2]
  IC50: > 30 µM
Human D2R/β-arrestin [3]
  EC50: 0.1 to 1 µM
Human D2R/β-arrestin [4]
  IC50: 0.1 to 1 µM

## CC1(Oc2ccc(Cl)cc2)CCN(CCOc2ccc(C(F)(F)F)nc2)CC1 [Compound 147, 5-(2-(4-(4-chlorophenoxy)-4-methylpiperidin-1-yl)ethoxy)-2-(trifluoromethyl)pyridine]
Human D2R/β-arrestin [1]
  EC50: < 0.1 µM
Human D2R/β-arrestin [2]
  IC50: > 30 µM
Human D2R/β-arrestin [3]
  EC50: < 0.1 µM
Human D2R/β-arrestin [4]
  IC50: > 30 µM

## CC1(Oc2ccc(Cl)cc2)CCN(CCOc2ccc(C(F)(F)F)cn2)CC1 [Compound 148, 2-(2-(4-(4-chlorophenoxy)-4-methylpiperidin-1-yl)ethoxy)-5-(trifluoromethyl) pyridine]
Human D2R/β-arrestin [1]
  EC50: > 30 µM
Human D2R/β-arrestin [2]
  IC50: > 30 µM
Human D2R/β-arrestin [3]
  EC50: 10 to 30 µM
Human D2R/β-arrestin [4]
  IC50: > 30 µM

## CC1(Oc2ccc(Cl)cc2)CCN(CCOc2ccc(F)cc2)CC1 [Compound 149, 4-(4-chlorophenoxy)-1-(2-(4-fluorophenoxy)ethyl)-4-methylpiperidine]
Human D2R/β-arrestin [1]
  EC50: 0.1 to 1 µM
Human D2R/β-arrestin [2]
  IC50: > 30 µM
Human D2R/β-arrestin [3]
  EC50: < 0.1 µM
Human D2R/β-arrestin [4]
  IC50: 1 to 10 µM

## Cc1ccc(OCCN2CCC(C)(Oc3ccc(Cl)cc3)CC2)cc1 [Compound 150, 4-(4-chlorophenoxy)-4-methyl-1-(2-(p-tolyloxy)ethyl)piperidine]
Human D2R/β-arrestin [1]
  EC50: 0.1 to 1 µM
Human D2R/β-arrestin [2]
  IC50: > 30 µM
Human D2R/β-arrestin [3]
  EC50: < 0.1 µM
Human D2R/β-arrestin [4]
  IC50: > 30 µM

## CC1(Oc2ccc(Cl)cc2)CCN(CCOc2ccc(Cl)cc2)CC1 [Compound 151, 4-(4-chlorophenoxy)-1-(2-(4-chlorophenoxy)ethyl)-4-methylpiperidine]
Human D2R/β-arrestin [1]
  EC50: 0.1 to 1 µM
Human D2R/β-arrestin [2]
  IC50: > 30 µM
Human D2R/β-arrestin [3]
  EC50: < 0.1 µM
Human D2R/β-arrestin [4]
  IC50: > 30 µM

## CC1(Oc2ccc(Cl)cc2)CCN(CCOc2ccc(S(C)(=O)=O)cc2)CC1 [Compound 152, 4-(4-chlorophenoxy)-4-methyl-1-(2-(4-(methylsulfonyl)phenoxy)ethyl)piperidine]
Human D2R/β-arrestin [1]
  EC50: > 30 µM
Human D2R/β-arrestin [2]
  IC50: 10 to 30 µM
Human D2R/β-arrestin [3]
  EC50: 10 to 30 µM
Human D2R/β-arrestin [4]
  IC50: 10 to 30 µM

## CC(=O)c1ccc(OCCN2CCC(C)(Oc3ccc(Cl)cc3)CC2)cc1 [Compound 153, 1-(4-(2-(4-(4-chlorophenoxy)-4-methylpiperidin-1-yl)ethoxy)phenyl)ethanone]
Human D2R/β-arrestin [1]
  EC50: > 30 µM
Human D2R/β-arrestin [2]
  IC50: 1 to 10 µM
Human D2R/β-arrestin [3]
  EC50: > 30 µM
Human D2R/β-arrestin [4]
  IC50: 1 to 10 µM

## CC(O)c1ccc(OCCN2CCC(C)(Oc3ccc(Cl)cc3)CC2)cc1 (stereo not drawn) [Compound 154, 1-(4-(2-(4-(4-chlorophenoxy)-4-methylpiperidin-1-yl)ethoxy)phenyl)ethanol]
Human D2R/β-arrestin [1]
  EC50: > 30 µM
Human D2R/β-arrestin [2]
  IC50: 0.1 to 1 µM
Human D2R/β-arrestin [3]
  EC50: > 30 µM
Human D2R/β-arrestin [4]
  IC50: 10 to 30 µM

## CC1(Oc2ccc(Cl)cc2)CCN(CCOc2ccc(C(C)(C)O)cc2)CC1 [Compound 155, 2-(4-(2-(4-(4-chlorophenoxy)-4-methylpiperidin-1-yl)ethoxy)phenyl)propan-2-ol]
Human D2R/β-arrestin [1]
  EC50: > 30 µM
Human D2R/β-arrestin [2]
  IC50: 1 to 10 µM
Human D2R/β-arrestin [3]
  EC50: > 30 µM
Human D2R/β-arrestin [4]
  IC50: 1 to 10 µM

## CC1(Oc2ccc(Cl)cc2)CCN(CCOc2cccc(F)c2C(F)(F)F)CC1 [Compound 156, 4-(4-chlorophenoxy)-1-(2-(3-fluoro-2-(trifluoromethyl)phenoxy)ethyl)-4-methylpiperidine]
Human D2R/β-arrestin [1]
  EC50: 0.1 to 1 µM
Human D2R/β-arrestin [2]
  IC50: > 30 µM
Human D2R/β-arrestin [3]
  EC50: < 0.1 µM
Human D2R/β-arrestin [4]
  IC50: > 30 µM

## CC1(Oc2ccc(Cl)cc2)CCN(CCOc2ccc(F)cc2S(C)(=O)=O)CC1 [Compound 158, 4-(4-chlorophenoxy)-1-(2-(4-fluoro-2-(methylsulfonyl)phenoxy)ethyl)-4-methylpiperidine]
Human D2R/β-arrestin [1]
  EC50: > 30 µM
Human D2R/β-arrestin [2]
  IC50: 0.1 to 1 µM
Human D2R/β-arrestin [3]
  EC50: 0.1 to 1 µM
Human D2R/β-arrestin [4]
  IC50: 1 to 10 µM

## COc1ccc(F)cc1OCCN1CCC(C)(Oc2ccc(Cl)cc2)CC1 [Compound 159, 4-(4-chlorophenoxy)-1-(2-(5-fluoro-2-methoxyphenoxy)ethyl)-4-methylpiperidine]
Human D2R/β-arrestin [1]
  EC50: > 30 µM
Human D2R/β-arrestin [2]
  IC50: 1 to 10 µM
Human D2R/β-arrestin [3]
  EC50: < 0.1 µM
Human D2R/β-arrestin [4]
  IC50: 0.1 to 1 µM

## COc1cc(F)ccc1OCCN1CCC(C)(Oc2ccc(Cl)cc2)CC1 [Compound 160, 4-(4-chlorophenoxy)-1-(2-(4-fluoro-2-methoxyphenoxy)ethyl)-4-methyl piperidine]
Human D2R/β-arrestin [1]
  EC50: > 30 µM
Human D2R/β-arrestin [2]
  IC50: 0.1 to 1 µM
Human D2R/β-arrestin [3]
  EC50: > 30 µM
Human D2R/β-arrestin [4]
  IC50: 1 to 10 µM

## CC1(Oc2ccc(Cl)cc2)CCN(CCOc2cncs2)CC1 [Compound 161, 5-(2-(4-(4-chlorophenoxy)-4-methylpiperidin-1-yl)ethoxy)thiazole]
Human D2R/β-arrestin [1]
  EC50: 0.1 to 1 µM
Human D2R/β-arrestin [2]
  IC50: > 30 µM
Human D2R/β-arrestin [3]
  EC50: < 0.1 µM
Human D2R/β-arrestin [4]
  IC50: 10 to 30 µM

## CC1(Oc2ccc(Cl)cc2)CCN(CCOc2ncccc2C(F)(F)F)CC1 [Compound 162, 2-(2-(4-(4-chlorophenoxy)-4-methylpiperidin-1-yl)ethoxy)-3-(trifluoromethyl)pyridine]
Human D2R/β-arrestin [1]
  EC50: > 30 µM
Human D2R/β-arrestin [2]
  IC50: < 0.1 µM
Human D2R/β-arrestin [3]
  EC50: 1 to 10 µM
Human D2R/β-arrestin [4]
  IC50: 0.1 to 1 µM

## CC1(Oc2ccc(Cl)cc2)CCN(CCOc2cccnc2C(F)(F)F)CC1 [Compound 163, 3-(2-(4-(4-chlorophenoxy)-4-methylpiperidin-1-yl)ethoxy)-2-(trifluoromethyl)pyridine]
Human D2R/β-arrestin [1]
  EC50: 1 to 10 µM
Human D2R/β-arrestin [2]
  IC50: > 30 µM
Human D2R/β-arrestin [3]
  EC50: < 0.1 µM
Human D2R/β-arrestin [4]
  IC50: > 30 µM

## CC1(Oc2ccc(Cl)cc2)CCN(CCOc2cc(Cl)ccc2C(F)(F)F)CC1 [Compound 165, 1-(2-(5-chloro-2-(trifluoromethyl)phenoxy)ethyl)-4-(4-chlorophenoxy)-4-methylpiperidine]
Human D2R/β-arrestin [1]
  EC50: 10 to 30 µM
Human D2R/β-arrestin [2]
  IC50: > 30 µM
Human D2R/β-arrestin [3]
  EC50: 1 to 10 µM
Human D2R/β-arrestin [4]
  IC50: 1 to 10 µM

## CC1(Oc2ccc(Cl)cc2)CCN(CCOc2ccc3c(c2)NC(=O)CC3)CC1 [Compound 166, 7-(2-(4-(4-chlorophenoxy)-4-methylpiperidin-1-yl)ethoxy)-3,4-dihydroquinolin-2(1H)-one]
Human D2R/β-arrestin [1]
  EC50: > 30 µM
Human D2R/β-arrestin [2]
  IC50: 1 to 10 µM
Human D2R/β-arrestin [3]
  EC50: 1 to 10 µM
Human D2R/β-arrestin [4]
  IC50: 1 to 10 µM

## CC1(Oc2ccc(Cl)cc2)CCN(CCOc2ccncc2C(F)(F)F)CC1 [Compound 167, 4-(2-(4-(4-chlorophenoxy)-4-methylpiperidin-1-yl)ethoxy)-3-(trifluoromethyl)pyridine]
Human D2R/β-arrestin [1]
  EC50: > 30 µM
Human D2R/β-arrestin [2]
  IC50: 1 to 10 µM
Human D2R/β-arrestin [3]
  EC50: 1 to 10 µM
Human D2R/β-arrestin [4]
  IC50: 1 to 10 µM

## CC1(Oc2ccc(Cl)cc2)CCN(CCNc2ccccc2C(F)(F)F)CC1 [Compound 168, N-(2-(4-(4-chlorophenoxy)-4-methylpiperidin-1-yl)ethyl)-2-(trifluoromethyl) aniline]
Human D2R/β-arrestin [1]
  EC50: > 30 µM
Human D2R/β-arrestin [2]
  IC50: 1 to 10 µM
Human D2R/β-arrestin [3]
  EC50: > 30 µM
Human D2R/β-arrestin [4]
  IC50: 1 to 10 µM

## CN(CCN1CCC(C)(Oc2ccc(Cl)cc2)CC1)c1ccccc1C(F)(F)F [Compound 169, N-(2-(4-(4-chlorophenoxy)-4-methylpiperidin-1-yl)ethyl)-N-methyl-2-(trifluoromethyl)aniline]
Human D2R/β-arrestin [1]
  EC50: > 30 µM
Human D2R/β-arrestin [2]
  IC50: 0.1 to 1 µM
Human D2R/β-arrestin [3]
  EC50: > 30 µM
Human D2R/β-arrestin [4]
  IC50: 1 to 10 µM

## CC(=O)N(CCN1CCC(C)(Oc2ccc(Cl)cc2)CC1)c1ccccc1C(F)(F)F [Compound 170, N-(2-(4-(4-chlorophenoxy)-4-methylpiperidin-1-yl)ethyl)-N-(2-(trifluoromethyl)phenyl)acetamide]
Human D2R/β-arrestin [1]
  EC50: > 30 µM
Human D2R/β-arrestin [2]
  IC50: > 30 µM
Human D2R/β-arrestin [3]
  EC50: > 30 µM
Human D2R/β-arrestin [4]
  IC50: > 30 µM

## CC1(Oc2ccc(Cl)cc2)CCN(CCOc2ccc3cccc(C(F)(F)F)c3n2)CC1 [Compound 171, 2-(2-(4-(4-chlorophenoxy)-4-methylpiperidin-1-yl)ethoxy)-8-(trifluoromethyl)quinoline]
Human D2R/β-arrestin [1]
  EC50: > 30 µM
Human D2R/β-arrestin [2]
  IC50: > 30 µM
Human D2R/β-arrestin [3]
  EC50: 0.1 to 1 µM
Human D2R/β-arrestin [4]
  IC50: > 30 µM

## CC1(Oc2ccc(Cl)cc2)CCN(CCn2c(=O)ccc3cccc(C(F)(F)F)c32)CC1 [Compound 172, 1-(2-(4-(4-chlorophenoxy)-4-methylpiperidin-1-yl)ethyl)-8-(trifluoromethyl)quinolin-2(1H)-one]
Human D2R/β-arrestin [1]
  EC50: > 30 µM
Human D2R/β-arrestin [2]
  IC50: > 30 µM
Human D2R/β-arrestin [3]
  EC50: 1 to 10 µM
Human D2R/β-arrestin [4]
  IC50: > 30 µM

## CC1(Oc2ccccc2)CCN(CCOc2ccncc2)CC1 [Compound 173, 4-(2-(4-methyl-4-phenoxypiperidin-1-yl)ethoxy)pyridine]
Human D2R/β-arrestin [1]
  EC50: 1 to 10 µM
Human D2R/β-arrestin [2]
  IC50: > 30 µM
Human D2R/β-arrestin [3]
  EC50: 0.1 to 1 µM
Human D2R/β-arrestin [4]
  IC50: > 30 µM
